Data on 27 compounds can be found in US12391679B2, “Benzamide-substituted bicyclic imidazo- and pyrazolo-fused -pyridine, -pyrimide, and -pyridazine compounds for treatment of inflammatory diseases” (ONCO3R Therapeutics BV, priority 2019, dated 2025).

One assay has as its target T1, SIK1 (Homo sapiens, UniProt P57059).
T1 construct: purchased Carna Biosciences 02-131
Briefly: ADP-Glo kinase assay, SIK1. It is filed as biochemical. The gist of the method: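 Steps: add enzyme–substrate mixture; start with diluted ATP; incubate RT 120 min; add ADP-Glo Reagent to terminate and remove unconsumed ATP, 40 min; add detection reagent, 30 min; read luminescence. DMSO at 1% and staurosporine at 10 μM (final) define assay windows.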
In general terms: In ADP-Glo the light output rises with the ADP produced.

Assay [1] deals with LPS-induced TNFα in monocyte-derived macrophages. Kind of assay: MdM assay: LPS-triggered TNFα (ELISA). It counts as cell-based, human. To be noted: Macrophage; human MdM; LPS 200 ng/mL; supernatant after 20 h; inhibition of TNFα; read-out: TNFα EC50. The method in brief:
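TNFα secretion quantified by streptavidin-HRP/luminol sandwich ELISA in supernatants collected 20 h after LPS (200 ng/mL). Macrophages derived from magnetically isolated human CD14+ monocytes were used at day 10, with compound added 1 h before LPS; final DMSO 0.2%.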

T1 sequence (P57059 whole entry): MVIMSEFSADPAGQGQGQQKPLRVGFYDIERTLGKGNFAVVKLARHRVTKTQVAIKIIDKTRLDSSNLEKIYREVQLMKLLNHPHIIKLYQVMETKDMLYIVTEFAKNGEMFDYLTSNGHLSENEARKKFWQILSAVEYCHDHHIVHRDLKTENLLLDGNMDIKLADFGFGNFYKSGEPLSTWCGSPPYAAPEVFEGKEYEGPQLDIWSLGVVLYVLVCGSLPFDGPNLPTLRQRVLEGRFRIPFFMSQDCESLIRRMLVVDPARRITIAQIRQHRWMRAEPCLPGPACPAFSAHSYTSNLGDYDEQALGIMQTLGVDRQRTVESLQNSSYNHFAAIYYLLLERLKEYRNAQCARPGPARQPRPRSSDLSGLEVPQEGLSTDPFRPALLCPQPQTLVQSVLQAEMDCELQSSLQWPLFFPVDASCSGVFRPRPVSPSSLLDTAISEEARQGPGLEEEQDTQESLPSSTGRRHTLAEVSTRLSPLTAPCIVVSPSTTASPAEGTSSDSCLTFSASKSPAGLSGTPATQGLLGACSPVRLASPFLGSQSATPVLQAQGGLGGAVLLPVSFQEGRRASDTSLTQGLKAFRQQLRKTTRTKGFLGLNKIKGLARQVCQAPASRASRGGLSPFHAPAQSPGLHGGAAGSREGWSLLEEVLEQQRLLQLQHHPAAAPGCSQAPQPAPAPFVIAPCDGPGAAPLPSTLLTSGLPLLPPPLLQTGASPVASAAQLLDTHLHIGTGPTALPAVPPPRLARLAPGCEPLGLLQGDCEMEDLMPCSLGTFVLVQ

For orientation: IC50 means the point on the concentration scale where inhibition reaches its midpoint. A higher IC50 goes with a need for much substance. What is called EC50 is the midpoint of the concentration-response curve. Turning to `COc1cc(-c2cnc3cc(C(C)(C)C#N)ccn23)cc(OC(F)F)c1C(=O)NC1CC1` [Cpd 19, 4-[7-(1-cyano-1-methyl-ethyl)imidazo[1,2-a]pyridin-3-yl]-N-cyclopropyl-2-(difluoromethoxy)-6-methoxy-benzamide], the IC50 at SIK1 is above 500 nM. In addition, the 50% effective concentration (EC50) in assay [1] lay within 100 to 1000 nM.

Take `CCC(C)(C#N)c1ccn2c(-c3cc(OC)c(C(=O)NC4CC4)c(OC(F)F)c3)cnc2c1` (stereo not drawn) [Cpd 27, 4-[7-(1-cyano-1-methyl-propyl)imidazo[1,2-a]pyridin-3-yl]-N-cyclopropyl-2-(difluoromethoxy)-6-methoxy-benzamide]: the half-maximal inhibitory concentration (IC50) at SIK1 was above 500 nM. Also, in assay [1], the EC50 lay within 100 to 1000 nM.

On SIK1, `COc1cc(-c2cnc3cc(C(C)(C)C#N)ccn23)cc(OC)c1C(=O)NC1CC1` [Cpd 28, 4-[7-(1-cyano-1-methyl-ethyl)imidazo[1,2-a]pyridin-3-yl]-N-cyclopropyl-2,6-dimethoxy-benzamide] yielded an IC50 above 500 nM. For the same compound, in assay [1], the EC50 was in the range of 100 to 1000 nM.

On SIK1, `COc1cc(-c2cnc3cc(C4(C#N)CC4)ccn23)cc(OC(F)F)c1C(=O)NC1CC1` [Cpd 33, 4-[7-(1-cyanocyclopropyl)imidazo[1,2-a]pyridin-3-yl]-N-cyclopropyl-2-(difluoromethoxy)-6-methoxy-benzamide] displayed an IC50 of 100 to 500 nM. For the same compound, in assay [1], the EC50 is 100 to 1000 nM.

Take `COc1cc(-c2cnc3cc(C(C)(C)O)ccn23)cc(OC(F)F)c1C(=O)NC1CC1` [Cpd 35, N-cyclopropyl-2-(difluoromethoxy)-4-[7-(1-hydroxy-1-methyl-ethyl)imidazo[1,2-a]pyridin-3-yl]-6-methoxy-benzamide]: the IC50 at SIK1 was above 500 nM. The 50% effective concentration (EC50) in assay [1] was 100 to 1000 nM.

Take `COc1cc(-c2cnc3cc(C(C)(C)C#N)ccn23)cc(OC(F)F)c1C(=O)NCC1CC1` [Cpd 39, 4-[7-(1-cyano-1-methyl-ethyl)imidazo[1,2-a]pyridin-3-yl]-N-(cyclopropylmethyl)-2-(difluoromethoxy)-6-methoxy-benzamide]: on SIK1, the IC50 was above 500 nM. In addition, in assay [1], the EC50 lay in the range of 100 to 1000 nM.

As to `COc1cc(-c2cnc3cc(C4CN(C(C)=O)C4)ccn23)cc(OC(F)F)c1C(=O)NC1CC1` [Cpd 63, 4-[7-(1-acetylazetidin-3-yl)imidazo[1,2-a]pyridin-3-yl]-N-cyclopropyl-2-(difluoromethoxy)-6-methoxy-benzamide], at SIK1, the IC50 was 100 to 500 nM. The concentration giving a half-maximal response (EC50) in assay [1] was in the range of 1000 to 5000 nM.

As to `COc1cc(-c2cnc3cc(C4CCCN(C(=O)OC(C)(C)C)C4)ccn23)cc(OC(F)F)c1C(=O)NC1CC1` (stereo not drawn) [Cpd 64, tert-butyl 3-[3-[4-(cyclopropylcarbamoyl)-3-(difluoromethoxy)-5-methoxy-phenyl]imidazo[1,2-a]pyridin-7-yl]piperidine-1-carboxylate], on SIK1, the IC50 was above 500 nM. The concentration for a half-maximal effect (EC50) in assay [1] is 100 to 1000 nM.

For the compound `COc1cc(-c2cnc3cc(C(C)(C)C#N)ccn23)cc(OC(F)F)c1C(=O)N1CC(F)(F)C1` [Cpd 69, 2-[3-[4-(3,3-difluoroazetidine-1-carbonyl)-3-(difluoromethoxy)-5-methoxy-phenyl]imidazo[1,2-a]pyridin-7-yl]-2-methyl-propanenitrile], the IC50 on SIK1 was above 500 nM. Further, the EC50 in assay [1] is 100 to 1000 nM.

As for `COc1cc(-c2cnc3cc(C(C)(C)C#N)ccn23)cc(OC(F)F)c1C(=O)NCC(F)F` [Cpd 70, 4-[7-(1-cyano-1-methyl-ethyl)imidazo[1,2-a]pyridin-3-yl]-N-(2,2-difluoroethyl)-2-(difluoromethoxy)-6-methoxy-benzamide], the half-maximal inhibitory concentration (IC50) on SIK1 is above 500 nM. Further, the EC50 in assay [1] lay within 100 to 1000 nM.

Compound `COc1cc(-c2cnc3cc(C(C)(C)C#N)ccn23)cc(OC(F)F)c1C(=O)N1CC(C#N)C1` [Cpd 77, 1-[4-[7-(1-cyano-1-methyl-ethyl)imidazo[1,2-a]pyridin-3-yl]-2-(difluoromethoxy)-6-methoxy-benzoyl]azetidine-3-carbonitrile] came in with an IC50 on SIK1 above 500 nM. Moreover, in assay [1], the EC50 lay in the range of 100 to 1000 nM.

With `COc1cc(-c2cnc3cc(C(C)(C)C#N)ccn23)cc(OC(F)F)c1C(=O)N[C@@H]1C[C@@H]1F` [Cpd 79, 4-[7-(1-cyano-1-methyl-ethyl)imidazo[1,2-a]pyridin-3-yl]-2-(difluoromethoxy)-N-[(1R,2S)-2-fluorocyclopropyl]-6-methoxy-benzamide], the half-maximal inhibitory concentration (IC50) against SIK1 is above 500 nM. The EC50 in assay [1] lay within 100 to 1000 nM.

With `COc1cc(-c2cnc3cc(C(C)(C)CN)ccn23)cc(OC(F)F)c1C(=O)NC1CC1` [Cpd 93, 4-[7-(2-amino-1,1-dimethyl-ethyl)imidazo[1,2-a]pyridin-3-yl]-N-cyclopropyl-2-(difluoromethoxy)-6-methoxy-benzamide], the IC50 against SIK1 is above 500 nM. Besides, in assay [1], the half-maximal effective concentration (EC50) lay in the range of 1000 to 5000 nM.

For the compound `COc1cc(-c2cnn3cc(C4CCOCC4)cnc23)cc(OC(F)F)c1C(=O)NC1CC1` [Cpd 95, N-cyclopropyl-2-(difluoromethoxy)-6-methoxy-4-(6-tetrahydropyran-4-ylpyrazolo[1,5-a]pyrimidin-3-yl)benzamide], the IC50 on SIK1 was above 500 nM. The half-maximal effective concentration (EC50) in assay [1] was 1000 to 5000 nM.

In turn, `COc1cc(-c2cnc3cc(C(C)(C)C#N)ccn23)cc(OC(F)F)c1C(=O)N1CC(F)C1` [Cpd 96, 2-[3-[3-(difluoromethoxy)-4-(3-fluoroazetidine-1-carbonyl)-5-methoxy-phenyl]imidazo[1,2-a]pyridin-7-yl]-2-methyl-propanenitrile] had an IC50 against SIK1 above 500 nM. Moreover, the EC50 in assay [1] fell in the range of 100 to 1000 nM.

For the compound `COc1cc(-c2cnc3cc(C(C)(C)N)ccn23)cc(OC(F)F)c1C(=O)NC1CC1` [Cpd 106, 4-[7-(1-amino-1-methyl-ethyl)imidazo[1,2-a]pyridin-3-yl]-N-cyclopropyl-2-(difluoromethoxy)-6-methoxy-benzamide], on SIK1, the IC50 is above 500 nM. Moreover, in assay [1], the EC50 was in the range of 100 to 1000 nM.

Consider `COc1cc(-c2cnc3cc(C4(C#N)CCOCC4)ccn23)cc(OC)c1C(=O)NCC(F)(F)F` [Cpd 107, 4-[7-(4-cyanotetrahydropyran-4-yl)imidazo[1,2-a]pyridin-3-yl]-2,6-dimethoxy-N-(2,2,2-trifluoroethyl)benzamide], for which, at SIK1, the half-maximal inhibitory concentration (IC50) was above 500 nM. The EC50 in assay [1] lay in the range of 1000 to 5000 nM.

Compound `COC(=O)C1(c2ccn3c(-c4cc(OC)c(C(=O)NC5CC5)c(OC(F)F)c4)cnc3c2)CC1` [Cpd 113, methyl 1-[3-[4-(cyclopropylcarbamoyl)-3-(difluoromethoxy)-5-methoxy-phenyl]imidazo[1,2-a]pyridin-7-yl]cyclopropanecarboxylate] displayed a 50% inhibitory concentration (IC50) at SIK1 above 500 nM. In assay [1], the EC50 was 100 to 1000 nM.

The compound `COc1cc(-c2cnc3cc(C4(C#N)CCOCC4)ccn23)cc(OC(F)F)c1C(=O)NC1CC1` [Cpd 116, 4-[7-(4-cyanotetrahydropyran-4-yl)imidazo[1,2-a]pyridin-3-yl]-N-cyclopropyl-2-(difluoromethoxy)-6-methoxy-benzamide] returned an IC50 against SIK1 above 500 nM. Further, in assay [1], the EC50 was in the range of 1000 to 5000 nM.

For the compound `COc1cc(-c2cnc3cc(C4(C#N)COC4)ccn23)cc(OC(F)F)c1C(=O)NC1CC1` [Cpd 117, 4-[7-(3-cyanooxetan-3-yl)imidazo[1,2-a]pyridin-3-yl]-N-cyclopropyl-2-(difluoromethoxy)-6-methoxy-benzamide], on SIK1, the 50% inhibitory concentration (IC50) was above 500 nM. Also, the EC50 in assay [1] is 100 to 1000 nM.

For the compound `COc1cc(-c2cnc3cc(C4(C#N)CCOC4)ccn23)cc(OC(F)F)c1C(=O)NC1CC1` (stereo not drawn) [Cpd 123, 4-[7-(3-cyanotetrahydrofuran-3-yl)imidazo[1,2-a]pyridin-3-yl]-N-cyclopropyl-2-(difluoromethoxy)-6-methoxy-benzamide], the IC50 against SIK1 was above 500 nM. In addition, the EC50 in assay [1] lay in the range of 1000 to 5000 nM.

With `CCOC(C)(C)c1ccn2c(-c3cc(OC)c(C(=O)NC4CC4)c(OC(F)F)c3)cnc2c1` [Cpd 128, N-cyclopropyl-2-(difluoromethoxy)-4-[7-(1-ethoxy-1-methyl-ethyl)imidazo[1,2-a]pyridin-3-yl]-6-methoxy-benzamide], the IC50 against SIK1 was above 500 nM. Further, in assay [1], the concentration for a half-maximal effect (EC50) lay in the range of 100 to 1000 nM.

The compound `COc1cc(-c2cnc3cc(C(C)(O)C(F)(F)F)ccn23)cc(OC(F)F)c1C(=O)NC1CC1` (stereo not drawn) [Cpd 129, N-cyclopropyl-2-(difluoromethoxy)-6-methoxy-4-[7-(2,2,2-trifluoro-1-hydroxy-1-methyl-ethyl)imidazo[1,2-a]pyridin-3-yl]benzamide] gave an IC50 at SIK1 above 500 nM. Moreover, the EC50 in assay [1] fell in the range of 100 to 1000 nM.

`COc1cc(-c2cnc3cc(C4(C#N)COC4)ccn23)cc(OC(F)F)c1C(=O)N[C@@H]1C[C@@H]1F` [Cpd 130, 4-[7-(3-cyanooxetan-3-yl)imidazo[1,2-a]pyridin-3-yl]-2-(difluoromethoxy)-N-[(1R,2S)-2-fluorocyclopropyl]-6-methoxy-benzamide]: the IC50 on SIK1 was above 500 nM. In assay [1], the EC50 was 100 to 1000 nM.

In the case of `COc1cc(-c2cnc3cc(C(F)(F)CO)ccn23)cc(OC(F)F)c1C(=O)NC1CC1` [Cpd 136, N-cyclopropyl-4-[7-(1,1-difluoro-2-hydroxy-ethyl)imidazo[1,2-a]pyridin-3-yl]-2-(difluoromethoxy)-6-methoxy-benzamide], the IC50 on SIK1 is above 500 nM. For the same compound, in assay [1], the EC50 lay in the range of 100 to 1000 nM.

`CCC(C)(O)c1ccn2c(-c3cc(OC)c(C(=O)NC4CC4)c(OC(F)F)c3)cnc2c1` (stereo not drawn) [Cpd 137, N-cyclopropyl-2-(difluoromethoxy)-4-[7-(1-hydroxy-1-methyl-propyl)imidazo[1,2-a]pyridin-3-yl]-6-methoxy-benzamide] had an IC50 against SIK1 above 500 nM. Also, the concentration for a half-maximal effect (EC50) in assay [1] lay within 100 to 1000 nM.

The compound `COc1cc(-c2cnc3cc(C(C)(O)C4CC4)ccn23)cc(OC(F)F)c1C(=O)NC1CC1` (stereo not drawn) [Cpd 138, N-cyclopropyl-4-[7-(1-cyclopropyl-1-hydroxy-ethyl)imidazo[1,2-a]pyridin-3-yl]-2-(difluoromethoxy)-6-methoxy-benzamide] came in with an IC50 on SIK1 above 500 nM. Besides, in assay [1], the concentration for a half-maximal effect (EC50) was 100 to 1000 nM.
